From patent US7345070B2, “Peroxisome proliferator activated receptor agonists” (Eli Lilly and Company, priority 2000, dated 2008)

Tested on: db/db mice
Assay: Evaluation of glucose levels in db/db mice
Type: in vivo
Conditions: Mus musculus, 168 h, 30 mg/kg oral gavage daily for 7 days, 100% = glucose not different from lean values, read-out: Glucose Normalisation
Method: Five week old male diabetic (db/db) mice [C57BlKs/j-m+/+ Lepr(db), Jackson Laboratory, Bar Harbor, Me.] or lean littermates (db+) were housed 6 per cage (10″×20″×8″ with aspen chip bedding) with food (Purina 5015) and water available at all times. After an acclimation period of 2 weeks, animals were individually identified by ear notches, weighed, and bled via the tail vein for determination of initial glucose levels. Blood was collected (100 μl) from unfasted animals by wrapping each mouse in a towel, cutting the tip of the tail with a scalpel, and milking blood from the tail into a heparinized capillary tube (Fisher) balanced on the edge of the bench. Sample was discharged into a heparinized microtainer with gel separator (VWR) and retained on ice. Plasma was obtained after centrifugation at 4° C. and glucose measured immediately. Remaining plasma was frozen until the completion of the experiment, when glucose and triglycerides were assayed in all samples. Animals were grouped based on initial glucose levels and body weights. Beginning the following morning, mice were dosed daily by oral gavage for 7 days using a 20 gauge, 1½″ curved disposable feeding needle. Treatments were test compounds (30 mg/kg), a positive control agent (30 mg/kg) or vehicle [1% carboxymethylcellulose (w/v)/0.25% Tween80 (w/v); 0.3 ml/mouse]. On day 7, mice were weighed and bled (tail vein) 3 hours after dosing. Twenty-four hours after the 7th dose (i.e., day 8), animals were bled again (tail vein). Samples obtained from conscious animals on days 0, 7 and 8 were assayed for glucose. After the 24 hour bleed, animals were weighed and dosed for the final time. Three hours after dosing on day 8, animals were anesthetized by inhalation of isoflurane and blood obtained via cardiac puncture (0.5-0.7 ml). Whole blood was transferred to serum separator tubes, chilled on ice and permitted to clot. Serum was obtained after centrifugation at 4° C. and frozen until analysis for compound levels. After sacrifice by cervical dislocation, the liver, heart and epididymal fat pads were excised and weighed.
The animals dosed with vehicle had average triglycerides values of 170-230 mg/dl, which were reduced by the positive PPARγ control (70-120 mg/dl with a mean reduction of 50%). Male db/db mice were hyperglycemic (average glucose of 680-730 mg/dl on the 7th day of treatment), while lean animals had average glucose levels between 190-230 mg/dl.
Glucose was measured […] using commercially purchased reagents (Sigma #315-500). According to the manufacturers, the procedures were modified from published work (McGowan, M. W., Artiss, J. D., Strandbergh, D. R. & Zak, B. Clin Chem, 20:470-5 (1974) and Keston, A. Specific colorimetric enzymatic analytical reagents for glucose. Abstract of papers 129th Meeting ACS, 31C (1956).); and depend on the release of a mole of hydrogen peroxide for each mole of analyte, coupled with a color reaction first described by Trinder (Trinder, P. Determination of glucose in blood using glucose oxidase with an alternative oxygen acceptor. Ann Clin Biochem, 6:24 (1969)). The absorbance of the dye produced is linearly related to the analyte in the sample. The assays were further modified in our laboratory for use in a 96 well format. Standards (Sigma #339-11, Sigma #16-11, and Sigma #CC0534 for glucose, triglycerides and total cholesterol, respectively), quality control plasma (Sigma # A2034), and samples (2 or 5 μl/well) were measured in duplicate using 200 μl of reagent. An additional aliquot of sample, pipetted to a third well and diluted in 200 μl water, provided a blank for each specimen. Plates were incubated at room temperature (18, 15, and 10 minutes for glucose, triglycerides and total cholesterol, respectively) on a plate shaker (DPC Micormix 5) and absorbance read at 500 nm (glucose and total cholesterol) or 540 nm (triglycerides) on a plate reader (Wallac Victor 1420). […]

SMILES: Cc1oc(-c2cccc(Br)c2)nc1CCOc1ccc(CC(C)(Oc2ccccc2)C(=O)O)cc1 (stereo not shown) [Example 8, 3-(4-{2-[2-(3-Bromophenyl)-5-methyloxazol-4-yl]ethoxy}phenyl)-2-methyl-2-phenoxypropionic acid]
- inhibition in vivo at 30 mg/kg: 97%

SMILES: Cc1oc(C2(C)CCCCC2)nc1CCOc1ccc(CC(C)(Oc2ccccc2)C(=O)O)cc1 (stereo not shown) [Example 9, 2-Methyl-3-(4-{2-[5-methyl-2-(1-methylcyclohexyl)oxazol-4-yl]ethoxy}phenyl)-2-phenoxypropionic acid]
- inhibition in vivo at 30 mg/kg: 95%

SMILES: Cc1oc(-c2cccs2)nc1CCOc1ccc(CC(C)(Oc2ccc(C(C)(C)C)cc2)C(=O)O)cc1 (stereo not shown) [Example 17, 2-Methyl-3-{4-[2-(5-methyl-2-thiophen-2-yl-oxazol-4-yl)-ethoxy]-phenyl}-2-(4-tert-butylphenoxy)-propionic acid]
- inhibition in vivo at 30 mg/kg: 112%

SMILES: Cc1oc(C2CCCCC2)nc1CCOc1ccc(CC(C)(Oc2ccc(C(C)(C)C)cc2)C(=O)O)cc1 (stereo not shown) [Example 18, 2-Methyl-3-(4-{2-[5-methyl-2-cyclohexylyl-oxazol-4-yl]-ethoxy}-phenyl)-2-(4-tert-butylphenoxy)-propionic acid]
- inhibition in vivo at 30 mg/kg: 110%

SMILES: COc1ccc(OC(C)(Cc2ccc(OCCc3nc(-c4cccs4)oc3C)cc2)C(=O)O)cc1 (stereo not shown) [Example 19, 2-Methyl-3-{4-[2-(5-methyl-2-thiophen-2-yl-oxazol-4-yl)-ethoxy]-phenyl}-2-(4-methoxyphenoxy)-propionic acid]
- inhibition in vivo at 30 mg/kg: 95%

SMILES: Cc1oc(-c2cccs2)nc1CCOc1ccc(CC(C)(Oc2cccc(F)c2)C(=O)O)cc1 (stereo not shown) [Example 22, 2-(3-Fluoro-phenoxy)-2-methyl-3-{4-[2-(5-methyl-2-thiophen-2-yl-oxazol-4-yl)-ethoxy]-phenyl}-propionic acid]
- inhibition in vivo at 30 mg/kg: 85%

SMILES: Cc1oc(C2CCCCC2)nc1CCOc1ccc(CC(C)(Oc2cccc(F)c2)C(=O)O)cc1 (stereo not shown) [Example 23, 2-(3-Fluoro-phenoxy)-2-methyl-3-{4-[2-(5-methyl-2-cyclohexyl-oxazol-4-yl)-ethoxy]-phenyl}-propionic acid]
- inhibition in vivo at 30 mg/kg: 97%

SMILES: Cc1oc(-c2cccs2)nc1CCOc1ccc(CC(C)(Oc2cccc(C(C)(C)C)c2)C(=O)O)cc1 (stereo not shown) [Example 25, 2-(3-tert-Butyl-phenoxy)-2-methyl-3-{4-[2-(5-methyl-2-thiophen-2-yl-oxazol-4-yl)-ethoxy]-phenyl}-propionic acid]
- inhibition in vivo at 30 mg/kg: 73%

SMILES: Cc1oc(-c2cccs2)nc1CCOc1ccc(CC(C)(Oc2ccccc2F)C(=O)O)cc1 (stereo not shown) [Example 27, 2-(2-Fluoro-phenoxy)-2-methyl-3-{4-[2-(5-methyl-2-thiophen-2-yl-oxazol-4-yl)-ethoxy]-phenyl}-propionic acid]
- inhibition in vivo at 30 mg/kg: 86%

SMILES: Cc1oc(-c2ccccc2)nc1CCOc1ccc(CC(C)(Oc2ccc(Cl)cc2)C(=O)O)cc1 (stereo not shown) [Example 29, 2-(4-Chloro-phenoxy)-2-methyl-3-{4-[2-(5-methyl-2-phenyl-oxazol-4-yl)-ethoxy]-phenyl}-propionic acid]
- inhibition in vivo at 30 mg/kg: 86%

SMILES: Cc1oc(C2CCCCC2)nc1CCOc1ccc(CC(C)(Oc2ccc(C3CCCCC3)cc2)C(=O)O)cc1 (stereo not shown) [Example 34, 3-{4-[2-(2-Cyclohexyl-5-methyl-oxazol-4-yl)-ethoxy]-phenyl}-2-(4-cyclohexyl-phenoxy)-2-methyl-propionic acid]
- inhibition in vivo at 30 mg/kg: 80%

SMILES: Cc1ccc(OC(C)(Cc2ccc(OCCc3nc(C4CCCCC4)oc3C)cc2)C(=O)O)cc1C (stereo not shown) [Example 35, 3-{4-[2-(2-Cyclohexyl-5-methyl-oxazol-4-yl)-ethoxy]-phenyl}-2-(3,4-dimethyl-phenoxy)-2-methyl-propionic acid]
- inhibition in vivo at 30 mg/kg: 84%

SMILES: Cc1ccc(OC(C)(Cc2ccc(OCCc3nc(-c4cccs4)oc3C)cc2)C(=O)O)cc1C (stereo not shown) [Example 36, 2-(3,4-Dimethyl-phenoxy)-2-methyl-3-{4-[2-(5-methyl-2-thiophen-2-yl-oxazol-4-yl)-ethoxy]-phenyl}-propionic acid]
- inhibition in vivo at 30 mg/kg: 92%

SMILES: Cc1ccc(OC(C)(Cc2ccc(OCCc3nc(-c4cccs4)oc3C)cc2)C(=O)O)cc1 (stereo not shown) [Example 40, 2-Methyl-3-{4-[2-(5-methyl-2-thiophen-2-yl-oxazol-4-yl)-ethoxy]-phenyl}-2-p-tolyloxy-propionic acid]
- inhibition in vivo at 30 mg/kg: 103%

SMILES: Cc1ccc(OC(C)(Cc2ccc(OCCc3nc(C4CCCCC4)oc3C)cc2)C(=O)O)cc1 (stereo not shown) [Example 41, 3-{4-[2-(2-Cyclohexyl-5-methyl-oxazol-4-yl)-ethoxy]-phenyl}-2-methyl-2-p-tolyloxy-propionic acid]
- inhibition in vivo at 30 mg/kg: 101%

SMILES: Cc1oc(C2CCCCC2)nc1CCOc1ccc(CC(C)(Oc2ccc(OC(F)(F)F)cc2)C(=O)O)cc1 (stereo not shown) [Example 44, 3-{4-[2-(2-Cyclohexyl-5-methyl-oxazol-4-yl)-ethoxy]-phenyl}-2-methyl-2-(4-trifluoromethoxy-phenoxy)-propionic acid]
- inhibition in vivo at 30 mg/kg: 83%

SMILES: Cc1oc(-c2cccs2)nc1CCOc1ccc(CC(C)(Oc2ccc(C(F)(F)F)cc2)C(=O)O)cc1 (stereo not shown) [Example 51, 2-Methyl-3-{4-[2-(5-methyl-2-thiophen-2-yl-oxazol-4-yl)-ethoxy]-phenyl}-2-(4-trifluoromethyl-phenoxy)-propionic acid]
- inhibition in vivo at 30 mg/kg: 88%

SMILES: Cc1oc(C2CCCCC2)nc1CCOc1ccc(CC(C)(Oc2ccc(C(F)(F)F)cc2)C(=O)O)cc1 (stereo not shown) [Example 52, 3-{4-[2-(2-Cyclohexyl-5-methyl-oxazol-4-yl)-ethoxy]-phenyl}-2-methyl-2-(4-trifluoromethyl-phenoxy)-propionic acid]
- inhibition in vivo at 30 mg/kg: 98%

SMILES: Cc1oc(C2CCCCC2)nc1CCOc1ccc(CC(C)(Oc2ccc(F)c(F)c2)C(=O)O)cc1 (stereo not shown) [Example 58, 3-{4-[2-(2-Cyclohexyl-5-methyl-oxazol-4-yl)-ethoxy]-phenyl}-2-(3,4-difluoro-phenoxy)-2-methyl-propionic acid]
- inhibition in vivo at 30 mg/kg: 81%

SMILES: Cc1cccc(OC(C)(Cc2ccc(OCCc3nc(-c4cccs4)oc3C)cc2)C(=O)O)c1 (stereo not shown) [Example 61, 2-Methyl-3-{4-[2-(5-methyl-2-thiophen-2-yl-oxazol-4-yl)-ethoxy]-phenyl}-2-m-tolyloxy-propionic acid]
- inhibition in vivo at 30 mg/kg: 79%

SMILES: Cc1cccc(OC(C)(Cc2ccc(OCCc3nc(C4CCCCC4)oc3C)cc2)C(=O)O)c1 (stereo not shown) [Example 62, 3-{4-[2-(2-Cyclohexyl-5-methyl-oxazol-4-yl)-ethoxy]-phenyl}-2-methyl-2-m-tolyloxy-propionic acid]
- inhibition in vivo at 30 mg/kg: 79%

SMILES: Cc1oc(-c2cccs2)nc1CCOc1ccc(CC(C)(Oc2ccc(F)cc2)C(=O)O)cc1 (stereo not shown) [Example 64, 2-(4-Fluoro-phenoxy)-2-methyl-3-{4-[2-(5-methyl-2-thiophen-2-yl-oxazol-4-yl)-ethoxy]-phenyl}-propionic acid]
- inhibition in vivo at 30 mg/kg: 97%

SMILES: Cc1oc(C2CCCCC2)nc1CCOc1ccc(CC(C)(Oc2ccc(F)cc2)C(=O)O)cc1 (stereo not shown) [Example 65, 3-{4-[2-(2-Cyclohexyl-5-methyl-oxazol-4-yl)-ethoxy]-phenyl}-2-(4-fluoro-phenoxy)-2-methyl-propionic acid]
- inhibition in vivo at 30 mg/kg: 99%

SMILES: Cc1oc(C2(C)CCCCC2)nc1CCOc1ccc(C[C@](C)(Oc2ccc(F)cc2)C(=O)O)cc1 [Example 67, (S)-2-(4-Fluoro-phenoxy)-2-methyl-3-(4-{2-[5-methyl-2-(1-methyl-cyclohexyl)-oxazol-4-yl]-ethoxy}-phenyl)-propionic acid]
- inhibition in vivo at 30 mg/kg: 96%

SMILES: Cc1oc(-c2cccs2)nc1CCOc1ccc(CC(C)(Oc2cccc(C(F)(F)F)c2)C(=O)O)cc1 (stereo not shown) [Example 71, 2-Methyl-3-{4-[2-(5-methyl-2-thiophen-2-yl-oxazol-4-yl)-ethoxy]-phenyl}-2-(3-trifluoromethyl-phenoxy)-propionic acid]
- inhibition in vivo at 30 mg/kg: 97%
